Data set [1] has as its system healthy volunteers. Put plainly: Profile of Mood States (POMS) after consumption of tryptophan sources (Example 6). The format is in vivo, human. The conditions noted are these: for mood changes after the intake (POMS total mood scores): over time after intake.
Excerpt: The POMS comprises five different subscales for mood; ranging from Anger, Depression, Fatigue and Tension that refer to a negative mood state, to Vigor concerning a positive mood.
The conditions of data set [2]: both, human, in vivo. Here is the method: The amino acid profiles in plasma were analyzed as described in Example 6 by HPLC according to van Eijk et al (J. Chromatogr. 1993: 620: 143-148).
The aim of the present study was to investigate in healthy volunteers plasma Trp/LNAA profiles and mood after the consumption of different tryptophan containing preparations.
Eighteen healthy students (9 males and 9 females: age between 18-30 years) participated in the study. Exclusion criteria for participation were chronic and current illness, history of psychiatric or medical illness, use of medication or drugs, alcohol consumption (>2 units/day), metabolic-, hormonal- or intestinal diseases and irregular diets or deviant eating habits (assessed by health and life-style questionnaires). Subjects participating in the experiment were in the normal range for the Body-Mass Index (BMI in kg/m^2 between 20-25) and female subjects are matched for contraception. Women participated during their mid-late follicular phase (day 4-10), while women using contraception participated when they actually used the contraception pill. […] All subjects participating in the experiment signed an Informed Consent Form. This study was conducted according to the EC principles of Good Clinical Practice (GCP) adopted by the 52nd WMA General Assembly, Edinburgh, Scotland, October 2000.
Subjects were instructed to fast overnight; only water or tea without sugar was permitted. During five experimental morning sessions, subjects visited the laboratory to monitor plasma Trp/LNAA concentrations and mood following the intake of a drink containing different Trp or LNAA concentrations. The order of presentation of the various drinks was counterbalanced and the four experimental days were separated by a one-week period. On each experimental morning, a 312 ml drink was provided containing different tryptophan (Trp) or LNAA concentrations (Table 1). All drinks contained 0.10 g sweetener (acesulfame) and were filled up with plain water in order to reach 312 mL. A research assistant blind to the dietary conditions conducted the administration of the different drinks.
Blood samples were collected in duplicate before and 15, 30, 60, 90, 120, 180 and 210 minutes after ingestion in 5 ml vacutainer tubes containing sodium heparine and were then centrifuged at 5000 rpm for 5 min at 4° C. The resulting supernatants were mixed with sulfasalicyl acid (4 mg/100 microliter) and directly stored at −80° C. until analysis. Plasma amino acid analysis was conducted with HPLC, making use of a 2-3 μm Bischof Spherisorb ODS II column as described by van Eijk et al (J. Chromatogr. 1993: 620: 143-148). The plasma Trp/LNAA ratios were calculated by dividing the plasma molar tryptophan concentration by the sum of the plasma molar concentrations of the large neutral amino acids valine, isoleucine, leucine, tyrosine and phenylalanine. Statistical analysis took place by means of repeated measures multivariate and univariate analyses of variance (MANOVA and ANOVA) using the General Linear Model (GLM: SPSS 12.0 for Windows). All statistics were evaluated at a significance level of P=0.05.

Read-outs that look alike come from different tables or passages of the source. Residues, ends and D or L forms follow the SMILES beside them.

For “ALAC: intact alpha-lactalbumin obtained as Biopure (>90% alpha-lactalbumin) from Davisco Foods International”, in data set [1], the “mood changes after the intake (POMS total mood scores)” value was “no mood changes”.

As for `N[C@@H](CO)C(=O)N[C@@H](Cc1c[nH]c2ccccc12)C(=O)O` [SYN, Ser-Trp] (H-Ser-Trp-OH), in data set [1], the “mood changes after the intake (POMS total mood scores)” value is given as “not significant”.

Consider `N[C@@H](Cc1c[nH]c2ccccc12)C(=O)O` [TRP, L-tryptophan], for which the “plasma Trp/LNAA ratio” value stood at 0.11 in data set [2] (0 min); 0.12 in data set [2] (30 min); 0.29 in data set [2] (60 min); 0.31 in data set [2] (90 min); 0.32 in data set [2] (120 min); 0.24 in data set [2] (180 min). Besides, in data set [2] (210 min), the “plasma Trp/LNAA ratio” value came out at 0.20. Besides, the “mood (POMS total mood scores)” value in data set [1] (60 min after the intake) was “improvements of mood”.

The record behind these values is patent US9993515B2 (DSM IP ASSETS B.V., priority 2006, dated 2018).
